According to publication PMC5218480 (PLoS ONE, 2017):

Test system: MV-4-11 cells
Assay: Gene expression microarray analysis (Affymetrix PrimeView) and GSEA
Type: cell-based, human
Design: RFU PODN (11730768_x_at) / Fold change /veh PODN (11730768_x_at) / RFU LINC00158 (11744669_a_at) / Fold change /veh LINC00158 (11744669_a_at) / RFU DUSP10 (11751237_a_at) / Fold change /veh DUSP10 (11751237_a_at) / RFU ID3 (11757404_x_at) / Fold change /veh ID3 (11757404_x_at) / RFU PLEKHG5 (11737974_s_at) / Fold change /veh PLEKHG5 (11737974_s_at) / RFU LRRC4B (11730491_at) / Fold change /veh LRRC4B (11730491_at) / RFU GIMAP4 (11747438_a_at) / Fold change /veh GIMAP4 (11747438_a_at) / RFU KRT8 (11758183_x_at) / Fold change /veh KRT8 (11758183_x_at) / RFU CNN1 (11734310_a_at) / Fold change /veh CNN1 (11734310_a_at) / RFU VPS37D (11726825_at) / Fold change /veh VPS37D (11726825_at) / RFU C10orf10 (11716522_x_at) / Fold change /veh C10orf10 (11716522_x_at) / RFU KIR2DL2 /// KIR2DL4 /// KIR2DL5A /// KIR2DL5B /// KIR2DS1 /// KIR2DS2 /// KIR2DS3 /// KIR2DS4 /// KIR3DL3 /// KIR3DL3 /// KIR3DS1 (11738374_at) / Fold change /veh KIR2DL2 /// KIR2DL4 /// KIR2DL5A /// KIR2DL5B /// KIR2DS1 /// KIR2DS2 /// KIR2DS3 /// KIR2DS4 /// KIR3DL3 /// KIR3DL3 /// KIR3DS1 (11738374_at) / RFU C1QL1 (11718748_at) / Fold change /veh C1QL1 (11718748_at) / RFU TMPRSS4 (11747572_a_at) / Fold change /veh TMPRSS4 (11747572_a_at) / RFU HAMP (11756126_x_at) / Fold change /veh HAMP (11756126_x_at) / RFU RNFT2 (11725882_a_at) / Fold change /veh RNFT2 (11725882_a_at) / RFU NR4A2 (11747474_a_at) / Fold change /veh NR4A2 (11747474_a_at) / RFU ABCC12 (11746883_a_at) / Fold change /veh ABCC12 (11746883_a_at) / RFU TMEM136 (11760407_x_at) / Fold change /veh TMEM136 (11760407_x_at) / RFU CLDN22 /// WWC2 (11732394_at) / Fold change /veh CLDN22 /// WWC2 (11732394_at) / RFU HLA-DPB1 (11760878_x_at) / Fold change /veh HLA-DPB1 (11760878_x_at) / RFU SPINT1 (11716480_a_at) / Fold change /veh SPINT1 (11716480_a_at) / RFU GAP43 (11754022_s_at) / Fold change /veh GAP43 (11754022_s_at) / RFU A4GNT (11735810_at) / Fold change /veh A4GNT (11735810_at) / RFU PRB3 (11715151_x_at) / Fold change /veh PRB3 (11715151_x_at) / RFU TUBB4B (11761932_at) / Fold change /veh TUBB4B (11761932_at) / RFU CAPN14 (11732068_a_at) / Fold change /veh CAPN14 (11732068_a_at) / RFU TMCC2 (11721928_a_at) / Fold change /veh TMCC2 (11721928_a_at) / RFU IRGQ (11745062_a_at) / Fold change /veh IRGQ (11745062_a_at) / RFU FAM174B (11720279_a_at) / Fold change /veh FAM174B (11720279_a_at) / RFU TMPRSS4 (11748680_a_at) / Fold change /veh TMPRSS4 (11748680_a_at) / RFU FAM212B (11763350_a_at) / Fold change /veh FAM212B (11763350_a_at) / RFU PLEKHG5 (11743358_a_at) / Fold change /veh PLEKHG5 (11743358_a_at) / RFU ZSCAN30 (11745921_a_at) / Fold change /veh ZSCAN30 (11745921_a_at) / RFU CMKLR1 (11741424_a_at) / Fold change /veh CMKLR1 (11741424_a_at) / RFU LOC101060620 /// MAPK8IP1 (11723275_at) / Fold change /veh LOC101060620 /// MAPK8IP1 (11723275_at) / RFU SPTSSB (11747773_x_at) / Fold change /veh SPTSSB (11747773_x_at) / RFU PRSS12 (11739890_at) / Fold change /veh PRSS12 (11739890_at) / RFU BIN1 (11741810_x_at) / Fold change /veh BIN1 (11741810_x_at) / RFU WNT11 (11732464_a_at) / Fold change /veh WNT11 (11732464_a_at) / RFU C10orf10 (11716521_a_at) / Fold change /veh C10orf10 (11716521_a_at) / RFU C5orf56 (11738089_at) / Fold change /veh C5orf56 (11738089_at) / RFU CYB561 (11721691_x_at) / Fold change /veh CYB561 (11721691_x_at) / RFU ANKRD19P (11752326_a_at) / Fold change /veh ANKRD19P (11752326_a_at) / RFU OR2T12 /// OR2T33 /// OR2T8 (11738714_s_at) / Fold change /veh OR2T12 /// OR2T33 /// OR2T8 (11738714_s_at) / RFU VCAN (11748164_a_at) / Fold change /veh VCAN (11748164_a_at) / RFU JSRP1 (11732532_at) / Fold change /veh JSRP1 (11732532_at) / RFU KRTAP10-11 (11738290_x_at) / Fold change /veh KRTAP10-11 (11738290_x_at) / RFU MYO3A (11730013_a_at) / Fold change /veh MYO3A (11730013_a_at) / RFU EBF3 (11725865_a_at) / Fold change /veh EBF3 (11725865_a_at) / RFU CAMK2N1 (11719241_x_at) / Fold change /veh CAMK2N1 (11719241_x_at) / RFU C5orf56 (11738088_a_at) / Fold change /veh C5orf56 (11738088_a_at) / RFU OLFML3 (11715873_a_at) / Fold change /veh OLFML3 (11715873_a_at) / RFU LOC100653217 /// NTM (11731650_a_at) / Fold change /veh LOC100653217 /// NTM (11731650_a_at) / RFU MAPK11 (11762145_a_at) / Fold change /veh MAPK11 (11762145_a_at) / RFU FIZ1 (11724087_x_at) / Fold change /veh FIZ1 (11724087_x_at) / RFU OASL (11726364_x_at) / Fold change /veh OASL (11726364_x_at) / RFU SOX15 (11748057_x_at) / Fold change /veh SOX15 (11748057_x_at) / RFU CD79A (11719716_a_at) / Fold change /veh CD79A (11719716_a_at) / RFU HIST1H1D (11736915_at) / Fold change /veh HIST1H1D (11736915_at) / RFU CASKIN2 (11723855_a_at) / Fold change /veh CASKIN2 (11723855_a_at) / RFU LOC730098 (11760151_x_at) / Fold change /veh LOC730098 (11760151_x_at) / RFU OR4N2 (11742367_at) / Fold change /veh OR4N2 (11742367_at) / RFU PRRT2 (11749266_a_at) / Fold change /veh PRRT2 (11749266_a_at) / RFU SNX32 (11753110_a_at) / Fold change /veh SNX32 (11753110_a_at) / RFU CDHR5 (11726645_a_at) / Fold change /veh CDHR5 (11726645_a_at) / RFU RCAN1 (11760418_a_at) / Fold change /veh RCAN1 (11760418_a_at) / RFU FAM167A (11723789_a_at) / Fold change /veh FAM167A (11723789_a_at) / RFU FAM26E (11764081_at) / Fold change /veh FAM26E (11764081_at) / RFU ISYNA1 (11749810_s_at) / Fold change /veh ISYNA1 (11749810_s_at) / RFU ACY1 (11761880_at) / Fold change /veh ACY1 (11761880_at) / RFU 11764098_at / Fold change /veh 11764098_at / RFU SAMD14 (11745864_x_at) / Fold change /veh SAMD14 (11745864_x_at) / RFU NPB (11741838_a_at) / Fold change /veh NPB (11741838_a_at) / RFU TMPRSS6 (11731388_a_at) / Fold change /veh TMPRSS6 (11731388_a_at) / RFU KRTAP10-2 (11738614_at) / Fold change /veh KRTAP10-2 (11738614_at) / RFU ARHGAP8 /// PRR5-ARHGAP8 (11727945_x_at) / Fold change /veh ARHGAP8 /// PRR5-ARHGAP8 (11727945_x_at) / RFU KRTAP5-7 /// NADSYN1 (11734609_at) / Fold change /veh KRTAP5-7 /// NADSYN1 (11734609_at) / RFU RASL12 (11751679_a_at) / Fold change /veh RASL12 (11751679_a_at) / RFU CDKN2B (11736163_a_at) / Fold change /veh CDKN2B (11736163_a_at) / RFU PRF1 (11729649_at) / Fold change /veh PRF1 (11729649_at) / RFU, ZNF638 /// ZNF638-IT1 / Fold change vs veh, ZNF638 /// ZNF638-IT1 / RFU, PANK3 / Fold change vs veh, PANK3 / RFU, SH3YL1 / Fold change vs veh, SH3YL1 / RFU, ZEB2 / Fold change vs veh, ZEB2 / RFU, NRIP1 / Fold change vs veh, NRIP1 / RFU, PTTG1IP / Fold change vs veh, PTTG1IP / RFU, CAPN2 / Fold change vs veh, CAPN2 / RFU, MED14 / Fold change vs veh, MED14 / RFU, SNORA58 / Fold change vs veh, SNORA58 / RFU, C1orf63 / Fold change vs veh, C1orf63 / RFU, LRRFIP1 / Fold change vs veh, LRRFIP1 / RFU, NDUFAF7 / Fold change vs veh, NDUFAF7 / RFU, SLC12A2 / Fold change vs veh, SLC12A2 / RFU, IBTK / Fold change vs veh, IBTK / RFU, ESF1 / Fold change vs veh, ESF1 / Fold change vs veh, TMEM50B / RFU, TAOK1 / Fold change vs veh, TAOK1 / RFU, ACBD3 / Fold change vs veh, ACBD3 / RFU, TMA16 / Fold change vs veh, TMA16 / RFU, RWDD3 / Fold change vs veh, RWDD3 / RFU, BCAT1 / Fold change vs veh, BCAT1 / RFU, EDEM3 / Fold change vs veh, EDEM3 / RFU, TMEM33 / Fold change vs veh, TMEM33 / RFU, WDR75 / Fold change vs veh, WDR75 / RFU, AHCTF1 / Fold change vs veh, AHCTF1 / RFU, TFRC / Fold change vs veh, TFRC / RFU, ZDHHC17 / Fold change vs veh, ZDHHC17 / RFU, NOM1 / Fold change vs veh, NOM1 / RFU, ARL8B / Fold change vs veh, ARL8B / RFU, ZBTB11 / Fold change vs veh, ZBTB11 / RFU, TAMM41 / Fold change vs veh, TAMM41 / RFU, KIAA1704 /// LOC100996395 / Fold change vs veh, KIAA1704 /// LOC100996395 / RFU, ING1 / Fold change vs veh, ING1 / RFU, TRMT61B / Fold change vs veh, TRMT61B / RFU, FUBP3 / Fold change vs veh, FUBP3 / RFU, TP53 / Fold change vs veh, TP53 / RFU, TNKS2 / Fold change vs veh, TNKS2 / RFU, ZFP14 / Fold change vs veh, ZFP14 / RFU, ACTR2 / Fold change vs veh, ACTR2 / RFU, PPP3R1 / Fold change vs veh, PPP3R1 / RFU, PIK3R1 / Fold change vs veh, PIK3R1 / RFU, HNRNPA1 / Fold change vs veh, HNRNPA1 / RFU, RNF170 / Fold change vs veh, RNF170 / RFU, ZNF28 / Fold change vs veh, ZNF28 / RFU, RNGTT / Fold change vs veh, RNGTT / RFU, OGT / Fold change vs veh, OGT / RFU, BRD1 / Fold change vs veh, BRD1 / RFU, MARS / Fold change vs veh, MARS / RFU, ZNF655 / Fold change vs veh, ZNF655 / RFU, FAHD1 / Fold change vs veh, FAHD1 / RFU, BDP1 / Fold change vs veh, BDP1 / RFU, LRRCC1 / Fold change vs veh, LRRCC1 / RFU, ARID1A / Fold change vs veh, ARID1A / RFU, ZNF146 / Fold change vs veh, ZNF146 / RFU, ZNF330 / Fold change vs veh, ZNF330 / RFU, GPN3 / Fold change vs veh, GPN3 / RFU, C9orf123 / Fold change vs veh, C9orf123 / RFU, N4BP2L2 / Fold change vs veh, N4BP2L2 / RFU, ARFIP1 / Fold change vs veh, ARFIP1 / RFU, FAM179B / Fold change vs veh, FAM179B / RFU, BCL10 / Fold change vs veh, BCL10 / RFU, UHRF1BP1L / Fold change vs veh, UHRF1BP1L / RFU, BET1 / Fold change vs veh, BET1 / RFU, CNOT2 / Fold change vs veh, CNOT2 / RFU, ZNF268 / Fold change vs veh, ZNF268 / Fold change vs veh, ZNF507 / RFU, DGCR2 / Fold change vs veh, DGCR2 / RFU, WDSUB1 / Fold change vs veh, WDSUB1 / Fold change vs veh, HSP90B1 /// MIR3652 / RFU, ADSS / Fold change vs veh, ADSS / RFU, GK / Fold change vs veh, GK / RFU, ZNF148 / Fold change vs veh, ZNF148 / RFU, TAF9 / Fold change vs veh, TAF9 / RFU, SLC1A5 / Fold change vs veh, SLC1A5 / RFU, SLMO2 / Fold change vs veh, SLMO2 / RFU, ABCC4 / Fold change vs veh, ABCC4 / RFU, LOC101060439 /// RAP1B / Fold change vs veh, LOC101060439 /// RAP1B / RFU, RFX7 / Fold change vs veh, RFX7 / RFU, GTPBP10 / Fold change vs veh, GTPBP10 / RFU, CNEP1R1 / Fold change vs veh, CNEP1R1 / RFU, BIVM-ERCC5 /// ERCC5 / Fold change vs veh, BIVM-ERCC5 /// ERCC5 / RFU, ILF3 / Fold change vs veh, ILF3 / RFU 11762660_at / Fold change /veh 11762660_at / RFU VCAN (11757783_s_at) / Fold change /veh VCAN (11757783_s_at) / RFU DDX43 (11728927_at) / Fold change /veh DDX43 (11728927_at) / RFU KRT8 (11758188_x_at) / Fold change /veh KRT8 (11758188_x_at) / RFU NKD1 (11759106_at) / Fold change /veh NKD1 (11759106_at) / RFU SRD5A1 (11742802_a_at) / Fold change /veh SRD5A1 (11742802_a_at) / RFU TPSAB1 /// TPSB2 (11721975_s_at) / Fold change /veh TPSAB1 /// TPSB2 (11721975_s_at) / RFU GSTM3 (11746129_a_at) / Fold change /veh GSTM3 (11746129_a_at) / RFU IL23R (11737362_x_at) / Fold change /veh IL23R (11737362_x_at) / RFU TMEM51 (11727254_a_at) / Fold change /veh TMEM51 (11727254_a_at) / RFU PIWIL2 (11732686_x_at) / Fold change /veh PIWIL2 (11732686_x_at) / RFU ORM1 (11744905_x_at) / Fold change /veh ORM1 (11744905_x_at) / RFU CCDC152 (11743942_at) / Fold change /veh CCDC152 (11743942_at) / RFU ECM1 (11717891_a_at) / Fold change /veh ECM1 (11717891_a_at) / RFU IL23R (11748794_a_at) / Fold change /veh IL23R (11748794_a_at) / RFU TNFAIP8L3 (11732012_x_at) / Fold change /veh TNFAIP8L3 (11732012_x_at) / RFU MBOAT4 (11741988_at) / Fold change /veh MBOAT4 (11741988_at) / RFU 11764193_at / Fold change /veh 11764193_at / RFU TMEM53 (11763286_at) / Fold change /veh TMEM53 (11763286_at) / RFU MAGEB2 (11727129_at) / Fold change /veh MAGEB2 (11727129_at) / RFU TMEM200A (11744735_a_at) / Fold change /veh TMEM200A (11744735_a_at) / RFU CCDC152 (11751479_a_at) / Fold change /veh CCDC152 (11751479_a_at) / RFU FAM211A (11726209_a_at) / Fold change /veh FAM211A (11726209_a_at) / RFU RGS16 (11746705_a_at) / Fold change /veh RGS16 (11746705_a_at) / RFU VCAN (11755009_s_at) / Fold change /veh VCAN (11755009_s_at) / RFU RHOB (11743442_s_at) / Fold change /veh RHOB (11743442_s_at) / RFU RGS16 (11720943_a_at) / Fold change /veh RGS16 (11720943_a_at) / RFU RGS16 (11720944_at) / Fold change /veh RGS16 (11720944_at) / RFU, VPS4B / Fold change vs veh, VPS4B / RFU, CREB1 / Fold change vs veh, CREB1 / RFU, DNAJC13 / Fold change vs veh, DNAJC13 / RFU, GNAQ / Fold change vs veh, GNAQ / RFU, CDK5R1 / Fold change vs veh, CDK5R1 / RFU, ZRANB3 / Fold change vs veh, ZRANB3 / RFU, CUL4A / Fold change vs veh, CUL4A / RFU, CCNY / Fold change vs veh, CCNY / RFU, UFL1 / Fold change vs veh, UFL1 / RFU, COG3 / Fold change vs veh, COG3 / RFU, DIAPH2 / Fold change vs veh, DIAPH2 / RFU, SKA2 / Fold change vs veh, SKA2 / RFU, AFF3 / Fold change vs veh, AFF3 / RFU, LMF1 / Fold change vs veh, LMF1 / RFU, IPO11 / Fold change vs veh, IPO11 / RFU, DFFB / Fold change vs veh, DFFB / RFU, FOXP1 / Fold change vs veh, FOXP1 / RFU, CARD8 / Fold change vs veh, CARD8 / RFU, STRN3 / Fold change vs veh, STRN3 / RFU, ADK / Fold change vs veh, ADK / RFU, RASSF2 / Fold change vs veh, RASSF2 / RFU, WIPF1 / Fold change vs veh, WIPF1 / RFU, LARP1B / Fold change vs veh, LARP1B / RFU, RASA1 / Fold change vs veh, RASA1 / RFU, RB1 / Fold change vs veh, RB1 / RFU, PPFIA1 / Fold change vs veh, PPFIA1 / RFU, MAT2A / Fold change vs veh, MAT2A / RFU, CCT5 / Fold change vs veh, CCT5 / RFU, WDR92 / Fold change vs veh, WDR92 / RFU, CUX1 / Fold change vs veh, CUX1 / RFU, TTC7A / Fold change vs veh, TTC7A / RFU, TMEM135 / Fold change vs veh, TMEM135 / RFU, DEPTOR / Fold change vs veh, DEPTOR / RFU, CPM / Fold change vs veh, CPM / RFU, DNAJB6 / Fold change vs veh, DNAJB6 / RFU, CACNA2D3 / Fold change vs veh, CACNA2D3 / RFU, DTX4 / Fold change vs veh, DTX4 / RFU, TFCP2 / Fold change vs veh, TFCP2 / RFU, GMCL1 /// GMCL1P1 / Fold change vs veh, GMCL1 /// GMCL1P1 / RFU, AEBP2 / Fold change vs veh, AEBP2 / RFU, SNHG1 /// SNORD22 /// SNORD25 /// SNORD26 /// SNORD27 /// SNORD28 /// SNORD29 /// SNORD31 / Fold change vs veh, SNHG1 /// SNORD22 /// SNORD25 /// SNORD26 /// SNORD27 /// SNORD28 /// SNORD29 /// SNORD31 / Fold change (Aza/veh), C12orf56 (ProbeSet 11735607_a_at) / Fold change (ACY-1035/veh), C12orf56 (ProbeSet 11735607_a_at) / Fold change (Aza/veh), FGFR1OP (ProbeSet 11751329_s_at) / Fold change (ACY-1035/veh), FGFR1OP (ProbeSet 11751329_s_at) / Fold change (Aza/veh), VPS36 (ProbeSet 11739960_a_at) / Fold change (ACY-1035/veh), VPS36 (ProbeSet 11739960_a_at) / RFU SYPL1 (11715823_x_at) / Fold change /veh SYPL1 (11715823_x_at) / RFU IGFBP7 (11715501_s_at) / Fold change /veh IGFBP7 (11715501_s_at) / RFU REEP3 (11722064_at) / Fold change /veh REEP3 (11722064_at) / RFU IGLL1 (11728026_x_at) / Fold change /veh IGLL1 (11728026_x_at): dose or concentration left out as unconfirmed
Settings: ProbeSet 11739106_a_at; LIST B

In the case of Nc1ncn([C@@H]2O[C@H](CO)[C@@H](O)[C@H]2O)c(=O)n1 [azacitidine], the “Fold change vs veh, TMEM33” value is reported as 0.88.
